Experimental data as given in ChEMBL document CHEMBL3507680, “University of Dundee, Gates Library screen for HepG2 cell viability”.

Test: Human HepG2 cell viability assay in 384 well format
Format: toxicity, cell-based
Design: dose 125 nL, time 70.5 hour; cytotoxicity at 70.5 h: concentration not given beside the values
Conditions: HepG2 cells, read-out: Inhibition

## O=C(NS(=O)(=O)c1ccccc1)c1ccccc1F
  cytotoxicity at 70.5 h: -4.29%

## COCCN(CC1CCCN(C2Cc3ccccc3C2)C1)C(=O)CSC (centres undefined)
  cytotoxicity at 70.5 h: -2.79%

## O=C(NC1CCCN(CCCc2ccccc2)C1)c1ccncc1 (centres undefined)
  cytotoxicity at 70.5 h: -2.32%

## CSc1ccccc1CN1C[C@@H]2CC[C@H](C1)N(CC1CC1)C2=O
  cytotoxicity at 70.5 h: 26.6%

## CC(=O)N[C@@H]1Cc2ccccc2[C@H]1Nc1nnc(C2CC2)o1
  cytotoxicity at 70.5 h: -7.5%

## Cc1ccc(OCCN(C)C(=O)CCCN2CCCC2=O)c(C)c1
  cytotoxicity at 70.5 h: -5.15%

## CN(C)S(=O)(=O)NCc1cccnc1Oc1ccc(F)cc1F
  cytotoxicity at 70.5 h: -3.42%

## CN(C)C(=O)CN1CCc2onc(-c3ccccc3F)c2C1
  cytotoxicity at 70.5 h: 48.8%

## COCc1cc(CNC(=O)c2c(C)cc(C)[nH]c2=O)n[nH]1
  cytotoxicity at 70.5 h: -1.97%

## CC(CCc1ccccc1)NC(=O)CN1CCOCC1 (centres undefined)
  cytotoxicity at 70.5 h: -3.3%

## O=C(c1cn(CCN2CCCCC2)nn1)N1CCSCC1
  cytotoxicity at 70.5 h: -1.47%

## CCOCc1nc2c(c(N3CC=CC3)n1)CCN(C1CCOCC1)CC2
  cytotoxicity at 70.5 h: 0.826%

## CCc1nc(N2CCN(c3ncccn3)CC2)c2cnn(C)c2n1
  cytotoxicity at 70.5 h: -5.59%

## Cc1nc(O)cc(C2CCCN(Cc3c(Cl)cncc3Cl)C2)n1 (centres undefined)
  cytotoxicity at 70.5 h: -8.65%

## O=C(CCCn1nnc(-c2ccc(F)cc2)n1)N1CCOCC(CO)C1 (centres undefined)
  cytotoxicity at 70.5 h: 23.7%

## CC(Cn1cncn1)NCCN1CCc2ccccc21 (centres undefined)
  cytotoxicity at 70.5 h: -5.52%

## O=C1C[C@H]2CC[C@@H](CN1)N2C(=O)CCc1ccsc1
  cytotoxicity at 70.5 h: -9.38%

## Cc1noc(C)c1CN1C[C@@H](C(=O)O)[C@H](C(C)C)C1
  cytotoxicity at 70.5 h: -10%

## Fc1ccc(C2CCCCN2Cc2cc(-c3ccccn3)no2)cc1 (centres undefined)
  cytotoxicity at 70.5 h: 17.8%

## CN(Cc1nc(C2CC2)no1)C(=O)c1cccc(CC2CCNCC2)c1
  cytotoxicity at 70.5 h: -5.09%

## CN(C)C(=O)NCc1cc2n(n1)CCCN(C[C@H]1[C@@H]3CNC[C@@H]31)C2
  cytotoxicity at 70.5 h: -0.846%

## COC(=O)c1sccc1S(=O)(=O)N1CCc2c(ncnc2N(C)C)C1
  cytotoxicity at 70.5 h: -1.11%

## CC(C)=Cc1c(-c2ccccc2)ncn1CCS(C)(=O)=O
  cytotoxicity at 70.5 h: 7.25%

## COc1ccc(O)c(C(=O)NCC2CCCN(C3CCOCC3)C2)c1 (centres undefined)
  cytotoxicity at 70.5 h: -10.8%

## Cn1ccnc1CN1CCC(c2nc3ccccc3n2C)CC1
  cytotoxicity at 70.5 h: 28.7%

## CNCCCNc1nc(C2CCCC2)nc2c1cnn2C
  cytotoxicity at 70.5 h: 2.51%

## Cc1nnc(CN2C[C@H]3CC[C@@H]2CN(C2Cc4ccccc4C2)C3)o1
  cytotoxicity at 70.5 h: 4.16%

## Cc1ccc(N2CCN(C(=O)CCC(F)(F)F)C(C)C2)cc1 (centres undefined)
  cytotoxicity at 70.5 h: -18.6%

## Cc1nn(CCNC(C)Cn2ccnc2)c(C)c1Cl (centres undefined)
  cytotoxicity at 70.5 h: -1.29%

## CN1CCCN(S(=O)(=O)c2cccc(C(=O)N3CCCCCC3)c2)CC1
  cytotoxicity at 70.5 h: -7.86%

## O=C(c1coc(CN2CCN(c3ccccc3F)CC2)n1)N1CCCC1
  cytotoxicity at 70.5 h: 5.68%

## CN1CCN(Cc2nnc(C3CCN(C4CCCCC4)CC3)n2C)CC1
  cytotoxicity at 70.5 h: -27.4%

## CN(CC1=CCCN(CCc2ccccn2)C1)C(=O)c1ccco1
  cytotoxicity at 70.5 h: -9.19%

## CN(CCc1noc(C2CC2)n1)C(=O)C1(N2CCCC2)CCCC1
  cytotoxicity at 70.5 h: -3.64%

## COC(=O)c1cccnc1N1CCC(Oc2cccc(F)c2)CC1
  cytotoxicity at 70.5 h: 1.14%

## Cc1nc(C2CCN(CC(=O)NC3CC3)CC2)cc(N2CCOCC2)n1
  cytotoxicity at 70.5 h: -0.642%

## c1ncn(Cc2nnc(C3CCN(CC4CC4)CC3)n2C2CC2)n1
  cytotoxicity at 70.5 h: -15.3%

## CN(Cc1cnc(C(C)(C)C)nc1)Cc1nc2ccc(F)cc2[nH]1
  cytotoxicity at 70.5 h: -5.62%

## COc1ccc(CN2C[C@@H]3CC[C@H](C2)N(Cc2snnc2C)C3)cc1
  cytotoxicity at 70.5 h: 49%

## NCCN1CCC(c2nnc(Cn3ccnc3)n2C2CC2)CC1
  cytotoxicity at 70.5 h: -3.91%

## CCCc1cnc(C)nc1N1CCC2(CC1)CNC(=O)O2
  cytotoxicity at 70.5 h: 10.5%

## CC1(C)CNC(=O)c2nc(CCN3CCC(C(N)=O)CC3)[nH]c2C1
  cytotoxicity at 70.5 h: -11.8%

## O=C(c1ccc[nH]1)N1CCN(CC2CCOc3ccccc3C2)CC1 (centres undefined)
  cytotoxicity at 70.5 h: 16.4%

## CN(Cc1ccc(F)cc1)CC1(O)CCCN(CC(C)(C)C)C1=O (centres undefined)
  cytotoxicity at 70.5 h: -6.42%

## CS(=O)(=O)NCc1cc2n(n1)CCCN(Cc1cccc(C#N)c1)C2
  cytotoxicity at 70.5 h: -9.28%

## Cc1cc(N2CCC(c3nnc(CN(C)C)n3C3CC3)CC2)ccn1
  cytotoxicity at 70.5 h: 18.3%

## CCOc1ncccc1C(=O)N1CCCC(c2nccn2CCOC)C1 (centres undefined)
  cytotoxicity at 70.5 h: -9.63%

## CCCS(=O)(=O)c1ncc(CN2CCC(CO)CC2)n1CC1CCCO1 (centres undefined)
  cytotoxicity at 70.5 h: -4.07%

## N#Cc1ccccc1C(=O)N1C[C@H](CO)C[C@H](CN2CCCC2)C1
  cytotoxicity at 70.5 h: -8.82%

## CN(C)c1ccccc1C(=O)N1C[C@@H](CN2CCCCC2)[C@@H](CO)C1
  cytotoxicity at 70.5 h: -3.58%

## CN(C)C(=O)N1CCN(C(=O)C(c2ccccc2F)N(C)C)CC1 (centres undefined)
  cytotoxicity at 70.5 h: -4.32%

## COCCCn1c(CN2CCCC(O)C2)cnc1S(=O)(=O)C1CCCC1 (centres undefined)
  cytotoxicity at 70.5 h: -5.61%

## COCc1nc(CNC2CCSCC2)no1
  cytotoxicity at 70.5 h: -8.13%

## CCn1ncnc1C(C)NC(=O)C1CCN(C(=O)COC)CC1 (centres undefined)
  cytotoxicity at 70.5 h: -8.09%

## COc1ccc(CN2CCC(O)CC2)c(OC)c1
  cytotoxicity at 70.5 h: -6.19%

## CCS(=O)(=O)c1ncc(CN(C)Cc2ccccn2)n1CCOC
  cytotoxicity at 70.5 h: -5.34%

## CCOCCn1nc(C)cc1C(=O)N1CCOCC(CO)C1 (centres undefined)
  cytotoxicity at 70.5 h: 12%

## COc1ccccc1OC1CCN(Cc2cnc(N(C)C)nc2)CC1
  cytotoxicity at 70.5 h: -7.45%

## CS(=O)(=O)N1CCC(Oc2ccc(C(=O)N3CCSCC3)cc2Cl)CC1
  cytotoxicity at 70.5 h: 0.994%

## O=S(=O)(Cc1ccccc1)NCc1ccco1
  cytotoxicity at 70.5 h: -5.52%

## CCn1ccnc1CN1C[C@@H](CN2CCCC2)[C@@H](CO)C1
  cytotoxicity at 70.5 h: -0.818%

## CCc1nc(C)c([C@H]2CN(C)C[C@@H]2C(=O)NCCc2cnccn2)[nH]1
  cytotoxicity at 70.5 h: -5.77%

## Cc1cc(N2CCCCCC2)n2nc(C)c(C)c2n1
  cytotoxicity at 70.5 h: -4.52%

## O=C(CCc1cccnc1)N(Cc1ccsc1)CC1CCCO1 (centres undefined)
  cytotoxicity at 70.5 h: -6.73%

## CC(C)NC(=O)[C@@H]1C[C@H](N)CN1C(=O)c1cc2ccccc2[nH]c1=O
  cytotoxicity at 70.5 h: -8.06%

## Cc1nonc1CC(=O)N1C[C@@H]2CC[C@H](C1)N(Cc1ccccc1)C2=O
  cytotoxicity at 70.5 h: 8.97%

## c1cn(Cc2nnc(C3CCN(c4nccs4)CC3)n2C2CC2)cn1
  cytotoxicity at 70.5 h: -4.16%

## CC(C)c1cc(NCC(C)N2CCCC2)n2nccc2n1 (centres undefined)
  cytotoxicity at 70.5 h: -10.1%

## CN(CCO)C[C@@H]1CN(C(=O)c2c(F)cccc2Cl)C[C@@H]1CO
  cytotoxicity at 70.5 h: -8.11%

## O=C(c1cccnc1)N1C[C@@H]2CC[C@H](C1)N(Cc1ncc[nH]1)C2
  cytotoxicity at 70.5 h: -7.7%

## Cc1cc(NCc2cc3n(n2)CCCN(S(C)(=O)=O)C3)ncn1
  cytotoxicity at 70.5 h: -5.23%

## CC(C)=CCN1C(=O)[C@H]2CC[C@@H]1CN(Cc1cccnc1N)C2
  cytotoxicity at 70.5 h: -4.57%

## O=C(CCc1cc2n(n1)CCCN(Cc1ccccc1F)C2)NC1CC1
  cytotoxicity at 70.5 h: 0.504%

## Cc1cc2c(cc1C(=O)N1CC[C@H](CO)[C@@H](O)C1)OCCO2
  cytotoxicity at 70.5 h: -7.62%

## O=C(Cc1ccc2c(c1)OCO2)N1CCCN(c2ccccc2)CC1
  cytotoxicity at 70.5 h: -4.44%

## COc1cccc2c1OCC(C(=O)N1CCN(S(C)(=O)=O)CC1)C2 (centres undefined)
  cytotoxicity at 70.5 h: 20.3%

## Cc1ccc(C(=O)N2CCN(S(C)(=O)=O)CC2)cc1N1CCNC1=O
  cytotoxicity at 70.5 h: -1.5%

## O=C(c1cc(COc2ccc3c(c2)OCO3)[nH]n1)N1CCCC1
  cytotoxicity at 70.5 h: -5.85%

## CCn1c(CN(C)C)nnc1C1CCN(Cc2cccc(OC)c2)CC1
  cytotoxicity at 70.5 h: 4.9%
